Legend:
[1] = test system: soluble epoxide hydrolase (sEH); test: Fluorescent assay for mouse and human soluble epoxide hydrolase (CMNPC substrate); type: biochemical; details: recombinant sEH, species (mouse or human) not given
Source text: Fluorescent Assay for Mouse and Human Soluble Epoxide Hydrolase
Recombinant mouse sEH (MsEH) and human sEH (HsEH) were produced in a baculovirus expression system as previously reported. Grant et al., J. Biol. Chem., 268:17628-17633 (1993); Beetham et al., Arch. Biochem. Biophys., 305:197-201 (1993). The expressed proteins were purified from cell lysate by affinity chromatography. Wixtrom et al., Anal. Biochem., 169:71-80 (1988). Protein concentration was quantified using the Pierce BCA assay using bovine serum albumin as the calibrating standard. The preparations were at least 97% pure as judged by SDS-PAGE and scanning densitometry. They contained no detectable esterase or glutathione transferase activity which can interfere with the assay. The assay was also evaluated with similar results in crude cell lysates or homogenate of tissues.
The IC50s for each inhibitor were according to the following procedure:
Cyano(2-methoxynaphthalen-6-yl)methyl (3-phenyloxiran-2-yl)methyl carbonate (CMNPC; Jones P. D. et. al.; Analytical Biochemistry 2005; 343: pp. 66-75)
Bis/Tris HCl 25 mM pH 7.0 containing 0.1 mg/mL of BSA (buffer A)
CMNPC at 0.25 mM in DMSO.
Mother solution of enzyme in buffer A (Mouse sEH at 6 μg/mL and Human sEH at 5 μg/mL). Inhibitor dissolved in DMSO at the appropriate concentration.
In a black 96 well plate, fill all the wells with 150 μL of buffer A. Add 2 μL of DMSO in well A2 and A3, and then add 2 μL of inhibitor solution in A1 and A4 through A12. Add 150 μL of buffer A in row A, then mix several time and transfer 150 μL to row B. Repeat this operation up to row H. The 150 μL removed from row H go to the trash. Add 20 μL of buffer A in column 1 and 2, then add 20 μL of enzyme solution to column 3 to 12. Incubate the plate for 5 minutes in the plate reader at 30° C. During incubation prepare the working solution of substrate by mixing 3.68 mL of buffer A (4×0.920 mL) with 266 μL (2×133 μL) of substrate solution). At t=0, add 30 μL of working substrate solution with multi-channel pipette labeled “Briggs 303” and start the reading ([S]final: 5 μM). Read with ex: 330 nm (20 nm) and em: 465 nm (20 nm) every 30 second for 10 minutes. The velocities are used to analyze and calculate the IC50s.

Compound | % Inh ([1]; compound concentration 2000 nM) [%] | melting point [°C] | % Inh ([1]; compound concentration 50 nM) [%] | % Inh ([1]; compound concentration 500 nM) [%]
O=C(Nc1ccc(C(F)(F)F)cc1)Nc1ccc2ncccc2c1 [Compound 1, 1-(quinolin-6-yl)-3-(4-(trifluoromethyl)phenyl)urea] | 98 | 259 to 263 | – | –
Cc1cc2cc(NC(=O)Nc3ccc(Cl)cc3)ccc2[nH]1 [Compound 6, 1-(4-chlorophenyl)-3-(2-methyl-1H-indol-5-yl)urea] | – | 257 to 260 | 89 | –
O=C(Nc1ccc(Cl)cc1)Nc1ccc2c(c1)OC(F)(F)O2 [Compound 7, 1-(4-chlorophenyl)-3-(2,2-difluorobenzo[d][1,3]dioxol-5-yl)urea] | – | 231 to 233 | 95 | –
Cc1cc2cc(NC(=O)NC34CC5CC(CC(C5)C3)C4)ccc2[nH]1 [Compound 9, 1-adamantan-1-yl-3-(2-methyl-1H-indol-5-yl)urea] | – | 146 to 152 | 85 | –
O=C(Nc1ccc2c(c1)OC(F)(F)O2)NC12CC3CC(CC(C3)C1)C2 [Compound 10, 1-adamantan-1-yl-3-(2,2-difluorobenzo[d][1,3]dioxol-5-yl)urea] | – | 213 to 215 | 99 | –
O=C(Nc1ccc(C(F)(F)F)cc1)Nc1ccc2[nH]c(C(F)(F)F)nc2c1 [Compound 14, 1-(2-(trifluoromethyl)-1H-benzo[d]imidazol-5-yl)-3-(4-(trifluoromethyl)phenyl)urea] | – | 223 to 228 | 80 | –
O=C(Nc1ccc2[nH]c(C(F)(F)F)nc2c1)NC12CC3CC(CC(C3)C1)C2 [Compound 15, 1-adamantan-1-yl-3-(2-(trifluoromethyl)-1H-benzo[d]imidazol-5-yl)urea] | – | 189 to 192 | – | 93
O=C(Nc1cccc(C(F)(F)F)c1)Nc1ccc2c(c1)COC2=O [Compound 17, 1-(1-oxo-1,3-dihydroisobenzofuran-5-yl)-3-(3-(trifluoromethyl)phenyl)urea] | – | 279 to 282 | 86 | –
O=C(Nc1ccc(C(F)(F)F)cc1)Nc1ccc2c(c1)COC2=O [Compound 18, 1-(1-oxo-1,3-dihydroisobenzofuran-5-yl)-3-(4-(trifluoromethyl)phenyl)urea] | – | – | 87 | –

The next lines start with the values.

% Inh ([1]; compound concentration 2000 nM) [%] | melting point [°C] | % Inh ([1]; compound concentration 50 nM) [%] | % Inh ([1]; compound concentration 500 nM) [%] | Compound
98 | – | – | – | O=C(Nc1ccc2c(c1)OCCO2)NC12CC3CC(CC(C3)C1)C2 [Compound 2, 1-adamantan-1-yl-3-(2,3-dihydrobenzo[b][1,4]dioxin-6-yl)urea]
– | 195 to 200 | 91 | – | O=C(Nc1ccc(C(F)(F)F)cc1)Nc1ccc2c(c1)OC(F)(F)O2 [Compound 3, 1-(2,2-difluorobenzol[d][1,3]dioxol-5-yl)-3-(4-(trifluoromethyl)phenyl)urea]
– | 264 to 268 | – | 91 | O=C(Nc1ccc(Cl)cc1)Nc1ccc2[nH]c(C(F)(F)F)nc2c1 [Compound 4, 1-(4-chlorophenyl)-3-(2-(trifluoromethyl)-1H-benzo[d]imidazol-5-yl)urea]
– | – | – | 89 | O=C(Nc1cccc(C(F)(F)F)c1)Nc1ccc2c(c1)OC(F)(F)O2 [Compound 5, 1-(2,2-difluorobenzo[d][1,3]dioxol-5-yl)-3-(3-(trifluoromethyl)phenyl)urea]
– | 252 to 254 | 92 | – | Cn1ncc2cc(NC(=O)Nc3ccc(C(F)(F)F)cc3)ccc21 [Compound 8, 1-(1-methyl-1H-indazol-5-yl)-3-(4-(trifluoromethyl)phenyl)urea]
– | 240 to 243 | 98 | – | Cc1nc2cc(NC(=O)Nc3ccc(C(F)(F)F)cc3)ccc2o1 [Compound 11, 1-(2-methylbenzo[d]oxazol-5-yl)-3-(4-(trifluoromethyl)phenyl)urea]
– | 184 to 186 | – | 93 | Cc1nc2cc(NC(=O)Nc3cccc(C(F)(F)F)c3)ccc2o1 [Compound 12, 1-(2-methylbenzo[d]oxazol-5-yl)-3-(3-(trifluoromethyl)phenyl)urea]
– | 209 to 214 | 92 | – | Cc1nc2cc(NC(=O)NC34CC5CC(CC(C5)C3)C4)ccc2s1 [Compound 13, 1-adamantan-1-yl-3-(2-methylbenzo[d]thiazol-5-yl)urea]
– | 213 to 215 | – | 85 | O=C(Nc1cccc(C(F)(F)F)c1)Nc1ccc2nc(C(F)(F)F)[nH]c2c1 [Compound 16, 1-(2-(trifluoromethyl)-1H-benzo[d]imidazol-5-yl)-3-(3-(trifluoromethyl)phenyl)urea]
